Structures can show the parent of a compound that is named as a salt.
Columns and labels:
Assay type in all cases: in vivo
Vav2/3^ko mouse [1] = test: Intraocular pressure after latanoprost eye drop, Example 4; details: 8- to 9-week old Vav2/3^ko mouse; 3 μL 0.01%/PBS applied; three hours later; vs PBS control
Method: For the 8- to 9-week old Vav2/3^ko mouse (No. 12), intraocular pressure was measured between 10 o'clock in the morning and noon by using a Tonometer. Then, 3 μL of latanoplast (0.01%/PBS, manufactured by Cayman Chemical) of a prostaglandin derivative as a therapeutic agent for glaucoma was applied and the intraocular pressure was measured again three hours later. As a control, a group administered only with PBS was prepared at the same time, and analysis was carried out based on Student's t-test (P<0.05). […] Therefore, it was confirmed that the mouse of the present invention is a useful model for evaluation of a therapeutic agent for glaucoma.

Vav2^ko mouse [2] = test: Intraocular pressure after eye-drop administration, Example 5; details: 7-week old Vav2^ko
Method: (§1) For the No. 20 animal of each of the 7-week old Vav2/3^ko and Vav2^ko, intraocular pressure was measured between 10 o'clock in the morning and noon by using a Tonometer. Then, 3 μL solution containing 0.02% benzalkonium chloride, 0.5% NaH2PO4, 0.6% Na2HPO4, 0.4% sodium chloride and 0.005% Latanoprost (manufactured by Cayman Chemical), or solution having the same composition except that no latanoplast was contained was applied to an eye of the animal based on a blind testing method. Three hours later, the intraocular pressure was measured again. In addition, to Vav2/3^ko, 3 μL eye-drop solution containing timolol maleate (Trade name; Timoptol, Merck Company, USA, 0.5% solution), or 3 μL eye-drop solution containing dorzolamide hydrochloride (Trade name; Trusopt, Merck Company, USA, 1% solution), both having a different mechanism for reducing intraocular pressure compared to latanoprost, was applied instead of the solution containing latanoprost as described above. Two hours after the application, change in the intraocular pressure was measured.

Vav2/3^ko mouse [3] = test: as above; details: for Ratio of effect on intraocular pressure: Vav2/3^ko
Method: as §1

Vav2^ko mouse [4] = test: Intraocular pressure after Y-27632 eye drop, Test Example 3; details: 7-week old Vav2^ko; 3 μL of 1 mM/PBS solution to eye; one hour after administration
Method: (§2) For No. 20 of each of the 7-week old Vav2/3^ko, Vav2^ko and Vav3^ko, intraocular pressure was measured between 10 o'clock in the morning and noon by using a Tonometer and then 3 μL of 1 mM/PBS solution of Y-27632 (Calbiochem), which is an inhibitor for Rho-associated protein kinase and has been reported to have an activity of reducing intraocular pressure by acting on an outflow tract for aqueous humor, or 3 μL of PBS solution was applied to an eye. One hour after the administration, the intraocular pressure was measured again.

Vav3^ko mouse = test: as above; details: 7-week old Vav3^ko; 3 μL of 1 mM/PBS solution to eye; one hour after administration
Method: as §2

Vav2/3^ko mouse [5] = test: as above; details: 7-week old Vav2/3^ko; 3 μL of 1 mM/PBS solution to eye; one hour after administration
Method: as §2

[6] = 3 μL eye-drop solution (timolol maleate 0.5%, dorzolamide hydrochloride 1%), two hours after application

With `CC(C)OC(=O)CCC/C=C\C[C@@H]1[C@@H](CC[C@@H](O)CCc2ccccc2)[C@H](O)C[C@@H]1O` [latanoprost] the intraocular pressure change (Vav2/3^ko mouse [1]) was “reduced”, the “intraocular pressure three hours after administration” value (Vav2^ko mouse [2]; 3 μL 0.005% solution to eye, three hours later, P<0.01) was 14.5 mmHg and the “intraocular pressure before administration” value (Vav2^ko mouse [2]; before eye drop of 3 μL 0.005% solution) was 17.4 mmHg. The “intraocular pressure three hours after administration” value (Vav2/3^ko mouse [3]; 7-week old Vav2/3^ko, 3 μL 0.005% solution to eye, three hours later, P<0.01) was 15.8±5.1 mmHg, the “intraocular pressure twenty four hours after eye drop administration” value (Vav2/3^ko mouse [3]; 7-week old Vav2/3^ko, 3 μL 0.005% solution, twenty four hours after) was “came back to the high value which is the same as the one before the eye drop administration” and the “intraocular pressure before administration” value (Vav2/3^ko mouse [3]; 7-week old Vav2/3^ko, before eye drop of 3 μL 0.005% solution) was 26.3±5.0 mmHg. For the same compound, the “Ratio of effect on intraocular pressure” value (Vav2/3^ko mouse [3]; 3 μL 0.005% latanoprost solution, three hours later) was “about 40%”.

`C[C@@H](N)[C@H]1CC[C@H](C(=O)Nc2ccncc2)CC1` [Y-27632] was tested, and the “activity of reducing the intraocular pressure” value (Vav2^ko mouse [4]) was “did not show any activity of reducing the intraocular pressure”, the “activity of reducing the intraocular pressure” value (Vav3^ko mouse) was “did not show any activity of reducing the intraocular pressure” and the “activity of reducing the intraocular pressure” value (Vav2/3^ko mouse [5]) was “did not show any activity of reducing the intraocular pressure”.

With `CC(C)(C)NC[C@H](O)COc1nsnc1N1CCOCC1` [timolol maleate] the “Ratio of effect on intraocular pressure” value (Vav2/3^ko mouse [3]; [6]) was 15%.

In the case of `CCN[C@H]1C[C@H](C)S(=O)(=O)c2sc(S(N)(=O)=O)cc21` [dorzolamide hydrochloride], the “Ratio of effect on intraocular pressure” value (Vav2/3^ko mouse [3]; [6]) is reported as 20%.

Source: US8304601B2, “Mouse model for eye disease” (priority 2007, dated 2012)
